From the NIST ThermoML archive (doi:10.1016/j.jct.2016.12.037)

Tests used:
[1] = 100 kPa, Liquid; for viscosity: Concentric cylinders viscometry; for mass density: Vibrating tube method
[2] = xn = mol fraction of the nth substance listed; conditions: 100 kPa, Liquid, x1 = 1; for viscosity: Concentric cylinders viscometry; for mass density: Vibrating tube method

CCCCn1cc[n+](C)c1.[Cl-] [1-butyl-3-methylimidazolium chloride]
[1]
Conditions	mass density [kg/m3]	viscosity [mPa·s]
348.15 K	1053.9	217
353.15 K	1051.2	162.1
358.15 K	1048.5	123.3
363.15 K	1045.9	95.6
368.15 K	1043.3	75.39
373.15 K	1040.8	60.26

CCCCn1cc[n+](C)c1.[Cl-] [1-butyl-3-methylimidazolium chloride] + CCCC[n+]1ccn(C)c1.O=S(=O)([N-]S(=O)(=O)C(F)(F)F)C(F)(F)F
[2]
Conditions	mass density [kg/m3]	viscosity [mPa·s]
348.15 K	1053.9	217
353.15 K	1051.2	162.1
358.15 K	1048.5	123.3
363.15 K	1045.9	95.6
368.15 K	1043.3	75.39
373.15 K	1040.8	60.26
